# According to patent publication US20080108641A1, “Compounds for treating inflammatory disorders, demyelinating disdorders and cancers” (priority 2006, published 2008):
# Read-outs that look alike come from different tables or passages of the source.
# Tests used:
# FLT3 = target: T1, FLT3 (Homo sapiens, UniProt P36888); assay: SelectScreen kinase assay against FLT3; format: biochemical; conditions: ATP at 100 micromolar; for inhibition at 1 µM: 1000 nMolar, read-out: E1000 (percent inhibition at 1000 nMolar)
# T1 construct: purchased Invitrogen, Inc. (SelectScreen platform)
# T1 sequence (P36888 27-993): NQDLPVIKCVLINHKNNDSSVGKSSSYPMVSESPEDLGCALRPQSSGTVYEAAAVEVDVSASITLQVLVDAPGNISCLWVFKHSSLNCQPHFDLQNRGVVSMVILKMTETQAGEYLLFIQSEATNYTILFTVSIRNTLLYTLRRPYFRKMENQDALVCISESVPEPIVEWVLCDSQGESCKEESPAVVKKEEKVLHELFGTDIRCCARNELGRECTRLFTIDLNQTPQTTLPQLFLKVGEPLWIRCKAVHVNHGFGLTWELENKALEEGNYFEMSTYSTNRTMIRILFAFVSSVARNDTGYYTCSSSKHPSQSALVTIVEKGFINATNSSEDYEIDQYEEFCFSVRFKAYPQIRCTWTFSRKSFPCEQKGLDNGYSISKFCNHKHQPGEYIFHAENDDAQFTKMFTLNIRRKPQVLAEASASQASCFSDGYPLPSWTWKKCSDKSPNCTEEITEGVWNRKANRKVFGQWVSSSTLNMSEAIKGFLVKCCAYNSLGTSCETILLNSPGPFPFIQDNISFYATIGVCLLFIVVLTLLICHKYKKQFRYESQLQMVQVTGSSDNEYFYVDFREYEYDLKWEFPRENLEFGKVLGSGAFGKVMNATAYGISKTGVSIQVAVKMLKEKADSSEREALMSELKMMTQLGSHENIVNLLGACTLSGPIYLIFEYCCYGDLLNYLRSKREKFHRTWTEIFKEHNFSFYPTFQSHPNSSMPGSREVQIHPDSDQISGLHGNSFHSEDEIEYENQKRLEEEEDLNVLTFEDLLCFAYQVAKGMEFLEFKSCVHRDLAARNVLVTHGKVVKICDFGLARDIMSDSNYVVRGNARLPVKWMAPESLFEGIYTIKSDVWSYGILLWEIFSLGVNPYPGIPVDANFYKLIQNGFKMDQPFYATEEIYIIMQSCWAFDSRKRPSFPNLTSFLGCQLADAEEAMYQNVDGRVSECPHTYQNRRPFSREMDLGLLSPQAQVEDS
# Experimental: The terms “IC50” and “EC50” are used interchangeably. As used herein, “EC50” refers to nMolar concentration at median percent inhibition determined by dose respose (DR) assay. As used herein, the term “E1000” refers to percent inhibition at 1000 nMolar determined by assay. EC50 was calculated based on dose response curve was fitted to 4 parameter Hill equation.
# Testing of the compounds described in this invention was carried out using the SelectScreen™ platform from Invitrogen, Inc. (Carlsbad, Calif., USA) and the details of its performance are readily viewed via the web by linking to: http://www.invitrogen.com/downloads/SelectScrn_Brochure.pdf.
# Briefly the approach is based on treating each specific kinase with a unique substrate and optical reporter system in the presence of ATP at 100 micromolar. In controls, the substrate is phosphorylated and a baseline optimal response is recorded.
# The compounds were then re-tested by adding graded amounts of putative inhibitor which were added in 5 separate increments to generate a dose response curve. The latter is obtained by fitting to a 4 parameter Hill equation, a sigmoid saturation equation.
# For the compounds of this invention, the experimental condition were as follows. The 2×FLT3/Tyr 02 peptide mixture was prepared in 50 mM HEPES pH 7.5, 0.01 BRIJ-35, 10 mM MgCl2, 1 mM EGTA. The final 10 uL kinase reaction consists of 0.6-76.0 ng FLT3 and 2 uM Tyr 02 peptide in 50 mM HEPES pH 7.5, 0.01% BRIJ-35, […], 1 mM EGTA. After 1 hour kinase reaction incubation, 5 uL of a 1:64 dilution of development reagent A was added.
# EC50 and E1000 values for selected compounds of formula (IB) were measured according to the protocol described above in Example 9.
# [1] = tested on: arthritis induced by monoclonal antibodies raised against type II collagen, plus LPS; conditions: Lange et al., 2005; cited from earlier work
# IL-4 = assay: Mediator release, IL-4 (Con A-stimulated PBML, sandwich ELISA); format: cell-based; conditions: Homo sapiens, read-out: % Growth Inhibition
# Experimental: (§1) In this experiment, test compound and/or vehicle were preincubated with human peripheral blood mononuclear leukocyte (PBML, 1×10^6/ml) in RPMI buffer pH 7.4 for 2 hours. Concanavalin A (Con A, 20 μg/ml) was then added to stimulate the cells overnight in 5% CO2 at 37° C. IL-4 and IL-10 cytokine levels in the conditioned medium were then quantified using a sandwich ELISA kit. Compounds were screened at 10, 1, 0.1, 0.01 and 0.001 μM.
# IL-10 = assay: Mediator release, IL-10 (Con A-stimulated PBML, sandwich ELISA); format: cell-based; conditions: Homo sapiens, read-out: % inhibition of IL-10 release, read-out: % Growth Inhibition
# Experimental: as §1
# [2] = tested on: B-lymphocyte cells isolated from the spleen; assay: Cell proliferation, B-Cell + LPS ([3H]thymidine incorporation); format: cell-based, balb/c mice; conditions: Mus musculus, read-out: % Growth Inhibition
# Experimental: B-lymphocyte cells isolated from the spleen of balb/c mice weighing 17±1 g were used. Test compound and/or vehicle were incubated with the cells (1.5×10^6/ml) in the presence of 10 μg/ml lipopolysaccharide (LPS) in AIM-V medium pH 7.4 at 37° C. for 24 hours. [^3H]Thymidine (120 nM) was then added for an additional overnight incubation period. Thymidine incorporation was assessed by liquid scintillation counting.
# (§2) Test compound-induced suppression of cell proliferation by 50 percent or more (≧50%) relative to vehicle control response indicates significant inhibitory activity.
# [3] = tested on: T-lymphocyte cells isolated from thymus; assay: Cell proliferation, T-Cell + Con A ([3H]thymidine incorporation); format: cell-based, balb/c mice; conditions: Mus musculus
# Experimental: T-lymphocyte cells isolated from thymus of balb/c mice weighing 17±1 g were used. Test compound and/or vehicle is incubated with the cells (4×10^6/ml) in the presence of 3 μg/mL Concanavalin A (Con A) in AIM-V medium pH 7.4 at 37° C. for 24 hours. [^3H]Thymidine (120 nM) was then added for an additional overnight incubation period. Thymidine incorporation was assessed by liquid scintillation counting. Compounds were screened at 10, 1, 0.1, 0.01 and 0.001 μM.
# as §2
# [4] = tested on: Experimental Autoimmune Encephalomyelitis (EAE); assay: Acute stage Experimental Autoimmune Encephalomyelitis (EAE) model, daily dosing
# Experimental: Accordingly, three randomized cohorts of guinea pigs with EAE induced by the method of Example 2, were treated, respectively, with 6 mg/kg of Symadex™ (full salt hydrate) and 0.35 mg/kg of mitoxantrone. Animals were treated daily, by intraperitoneal injection, for 15 days, starting on day 7 post immunization. Controls were treated with vehicle. We reasoned that 15 consecutive, 6 mg/kg doses of Symadex™ would represent a level of drug exposure that would be commensurate with the “20 mg/kg every 72 hours” regimen in Example 4 and consistent with a mid level exposure between the 20 mg/kg and the 40 mg/kg schedule given weekly, in Example 2. The mitoxantrone dose was selected to reflect a typical high dose given to rats or mice by daily dosing in the prior art, but allometrically scaled to the guinea pig.
compound,measurement,setting,value
CN(C)CCCCCNc1ccc2ncn3c4ccc5[nH]ncc5c4c(=O)c1c23 [(IIIA)],inhibition at 1 µM,FLT3; indazoles,96%
same,EC50,FLT3; indazoles,16 nM
CN(C)CCCNc1ccc2ncn3c4ccc5[nH]ncc5c4c(=O)c1c23 [(IVA)],EC50,FLT3; indazoles,9 nM
CN(C)CCNc1ccc2ncn3c4ccc(OC(=O)OC(C)(C)C)cc4c(=O)c1c23 [(VB)],inhibition at 1 µM,FLT3; esters of formula (IB),92%
same,EC50,FLT3; esters of formula (IB),96 nM
O=c1c2c(NCCN3CCOCC3)ccc3ncn(c4ccc5[nH]ncc5c14)c32 [Compound (VA)],inhibition at 1 µM,FLT3; indazoles,87%
same,EC50,FLT3; indazoles,32 nM
"CCN(CC)CCNc1ccc2ncn3c4ccc(OC(C)=O)cc4c(=O)c1c23 [Compound (VIB), Acetic acid 5-(2-diethylamino-ethylamino)-6-oxo-6H-2,10b-diaza-aceanthrylen-8-yl ester]",inhibition at 1 µM,FLT3; esters of formula (IB),64%
same,EC50,FLT3; esters of formula (IB),471 nM
CN(Cc1cnc2nc(N)nc(N)c2n1)c1ccc(C(=O)N[C@@H](CCC(=O)O)C(=O)O)cc1 [Methotrexate],benefit in antibody induced arthritis models,[1],diminishing benefit
"O=C1c2c(O)ccc(O)c2C(=O)c2c(NCCNCCO)ccc(NCCNCCO)c21 [Mitoxantrone, reference compound]",inhibition at 0.001 µM,IL-4; 1 nM,11%
same,inhibition at 0.01 µM,IL-4; 10 nM,13%
same,inhibition at 0.1 µM,IL-4; 0.1 μM,18%
same,inhibition at 1 µM,IL-4; 1 μM,-4%
same,inhibition at 10 µM,IL-4; 10 μM,108%
same,inhibition at 0.001 µM,IL-10; 1 nM,2%
same,inhibition at 0.01 µM,IL-10; 10 nM,1%
same,inhibition at 0.1 µM,IL-10; 0.1 μM,5%
same,inhibition at 1 µM,IL-10; 1 μM,60%
same,inhibition at 10 µM,IL-10; 10 μM,102%
same,inhibition at 0.001 µM,[2]; 1 nM,18%
same,inhibition at 0.01 µM,[2]; 10 nM,54%
same,inhibition at 0.1 µM,[2]; 0.1 μM,93%
same,inhibition at 1 µM,[2]; 1 μM,102%
same,inhibition at 10 µM,[2]; 10 μM,102%
same,inhibition at 0.001 µM,"[3]; 1 nM, read-out: % Growth Inhibition",-1%
same,inhibition at 0.01 µM,"[3]; 10 nM, read-out: % Growth Inhibition",19%
same,inhibition at 0.1 µM,"[3]; 0.1 μM, read-out: % Growth Inhibition",80%
same,inhibition at 1 µM,"[3]; 1 μM, read-out: % Growth Inhibition",103%
same,inhibition at 10 µM,"[3]; 10 μM, read-out: % Growth Inhibition",103%
same,IC50,"[3]; T-Cell + Con A proliferation, read-out: IC50",32 nM
same,clinical score course (neurological impairment),"[4]; daily i.p. for 15 days from day 7 post immunization, Symadex 6 mg/kg, mitoxantrone 0.35 mg/kg",initial rise in neurological impairment is arrested
same,statistical significance of therapeutic effect on clinical score vs control (Mann-Whitney rank-sum),"[4]; daily i.p. for 15 days, Symadex 6 mg/kg (p below 0.05), mitoxantrone 0.35 mg/kg",did not reach statistical significance
same,weight gain profile,"[4]; daily i.p. for 15 days, Symadex 6 mg/kg, mitoxantrone 0.35 mg/kg, Symadex vs mitoxantrone p 0.034",impairs weight gain
same,pathology score: meningeal inflammation (M) vs control,[4]; necropsy after 15 daily doses,statistically significant reduction
same,"pathology scores: perivascular cuffing (P), myelitis (E) and demyelination (D) vs control","[4]; necropsy after 15 daily doses, p value<0.05 from control","reducing the perivascular cuffing (P), myelitis (E) and demyelination (D)"
